ChEMBL document CHEMBL1133171, “Selective plasma hydrolysis of glucocorticoid gamma-lactones and cyclic carbonates by the enzyme paraoxonase: an ideal plasma inactivation mechanism” (J Med Chem, 2000)

Tests used:
[1] = target: T1, Glucocorticoid receptor (Homo sapiens, UniProt P04150); assay: (§1) Inhibition of [3H]dexamethasone binding to human Glucocorticoid Receptor
T1 sequence (P04150 whole entry): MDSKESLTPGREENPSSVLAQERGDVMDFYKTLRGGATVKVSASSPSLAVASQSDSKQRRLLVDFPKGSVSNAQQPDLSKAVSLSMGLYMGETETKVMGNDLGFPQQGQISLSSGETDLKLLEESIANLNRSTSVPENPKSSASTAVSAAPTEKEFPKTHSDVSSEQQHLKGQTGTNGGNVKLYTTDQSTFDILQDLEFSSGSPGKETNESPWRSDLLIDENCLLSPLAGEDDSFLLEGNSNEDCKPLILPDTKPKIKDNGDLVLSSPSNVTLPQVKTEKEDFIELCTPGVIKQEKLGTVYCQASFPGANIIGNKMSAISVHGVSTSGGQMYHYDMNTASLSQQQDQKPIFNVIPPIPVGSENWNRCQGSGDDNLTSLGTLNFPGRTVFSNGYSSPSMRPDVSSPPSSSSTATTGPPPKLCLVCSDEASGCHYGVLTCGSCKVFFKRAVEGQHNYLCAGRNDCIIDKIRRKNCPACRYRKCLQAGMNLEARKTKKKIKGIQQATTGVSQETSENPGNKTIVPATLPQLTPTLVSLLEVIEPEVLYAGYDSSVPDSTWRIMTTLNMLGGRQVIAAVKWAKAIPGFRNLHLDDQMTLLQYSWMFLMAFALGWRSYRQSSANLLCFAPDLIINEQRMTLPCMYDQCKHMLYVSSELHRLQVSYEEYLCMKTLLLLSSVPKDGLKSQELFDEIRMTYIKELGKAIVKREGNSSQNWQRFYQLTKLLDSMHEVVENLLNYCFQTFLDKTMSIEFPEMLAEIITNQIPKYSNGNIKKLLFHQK

[2] = target: T1, Glucocorticoid receptor; assay: as §1; remark: listed apart in the source

IC50 [1]: 0.827 µM
IC50 [2]: 0.194 µM
SMILES: CC1(C)O[C@@H]2CC3C4C[C@H](F)C5=CC(=O)C=C[C@]5(C)[C@@]4(F)[C@@H](O)C[C@]3(C)[C@]2(C(=O)CSC(CCO)C(=O)O)O1 (some centres not stated)
